In one assay the target is T1, human OX1 receptor (Homo sapiens, UniProt O43613).
T1 construct: expressed in transfected cells; host or cells: CHO cells
T1 sequence (O43613 1-425): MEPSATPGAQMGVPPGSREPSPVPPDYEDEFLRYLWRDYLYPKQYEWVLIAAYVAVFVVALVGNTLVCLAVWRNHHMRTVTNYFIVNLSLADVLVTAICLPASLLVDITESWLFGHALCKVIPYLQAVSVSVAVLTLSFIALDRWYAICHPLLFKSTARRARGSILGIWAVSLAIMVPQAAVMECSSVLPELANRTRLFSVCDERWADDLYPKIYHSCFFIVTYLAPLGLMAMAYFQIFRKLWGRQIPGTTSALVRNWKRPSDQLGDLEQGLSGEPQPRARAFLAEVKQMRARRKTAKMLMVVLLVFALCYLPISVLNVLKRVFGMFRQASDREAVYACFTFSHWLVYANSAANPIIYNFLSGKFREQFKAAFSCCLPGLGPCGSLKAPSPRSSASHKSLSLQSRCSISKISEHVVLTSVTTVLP
As to the kind of experiment: Measurement of orexin receptor antagonistic activity (calcium fluorescence, FLIPRtetra). The settings on record: CHO, 10 μM test compound; CHO cells expressing human OX1 receptor; OX-A 1 nM; read-out: Human Orexin1 receptor inhibition (at 10 μM). In kind it is cell-based. The essentials:
(§1)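 Calcium fluorescence measured by FLIPRtetra every second for 2 min after orexin-A challenge, 1 nM final for OX1 and 0.3 nM final for OX2. Receptor-expressing CHO cells received compound in HEPES-buffered HBSS with 0.1% BSA just before agonist.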

Another assay concerns the target T2, human OX2 receptor (Homo sapiens, UniProt O43614).
T2 construct: expressed in transfected cells; host or cells: CHO cells
T2 sequence (O43614 1-444): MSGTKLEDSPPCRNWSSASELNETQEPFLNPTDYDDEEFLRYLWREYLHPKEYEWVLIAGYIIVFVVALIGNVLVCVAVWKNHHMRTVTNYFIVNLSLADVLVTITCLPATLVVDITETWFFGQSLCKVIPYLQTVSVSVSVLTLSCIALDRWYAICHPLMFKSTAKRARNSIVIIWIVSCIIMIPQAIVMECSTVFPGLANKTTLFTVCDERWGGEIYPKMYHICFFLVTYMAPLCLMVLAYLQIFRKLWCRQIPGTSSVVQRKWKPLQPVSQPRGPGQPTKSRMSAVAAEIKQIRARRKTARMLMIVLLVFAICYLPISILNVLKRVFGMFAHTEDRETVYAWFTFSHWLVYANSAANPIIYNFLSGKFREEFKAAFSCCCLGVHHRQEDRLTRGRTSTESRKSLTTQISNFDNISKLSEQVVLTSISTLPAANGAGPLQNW
Described as above. It counts as cell-based. The settings on record: CHO, 10 μM test compound; CHO cells expressing human OX2 receptor; OX-A 0.3 nM; read-out: Human Orexin2 receptor inhibition (at 10 μM). The essentials: as §1

Structures can show the parent of a compound that is named as a salt.

As usually defined, the inhibition is the drop in the measured response relative to a control, in per cent.

Turning to `C[C@@H]1CON(c2cc(C3CC3)ncn2)CCN1C(=O)c1ccccc1-n1nccn1` [Example 150, ((6R)-2-(6-cyclopropylpyrimidin-4-yl)-6-methyl-1,2,5-oxadiazepan-5-yl) (2-(2H-1,2,3-triazol-2-yl)phenyl)methanone], the values for the inhibition at 10 µM at human OX1 receptor and on human OX2 receptor were 58% and 99%, respectively.
On to `CCc1ccnc(N2CCN(C(=O)c3ccccc3-n3nccn3)[C@H](C)CO2)n1` [Example 151, ((6R)-2-(4-ethylpyrimidin-2-yl)-6-methyl-1,2,5-oxadiazepan-5-yl) (2-(2H-1,2,3-triazol-2-yl)phenyl)methanone], for which the figures for the inhibition at 10 µM at human OX1 receptor and on human OX2 receptor were 81% and 98%, respectively.
With `Cc1cc(C#N)nc(N2CCN(C(=O)c3ccccc3-n3nccn3)[C@H](C)CO2)n1` [Example 152, 6-methyl-2-((6R)-6-methyl-5-(2-(2H-1,2,3-triazol-2-yl)benzoyl)-1,2,5-oxadiazepan-2-yl)pyrimidine-4-carbonitrile], the inhibition at 10 µM on human OX1 receptor worked out at 82%; on human OX2 receptor, 99%.
For `COc1cc(N2CCN(C(=O)c3ccccc3-n3nccn3)[C@H](C)CO2)nc(OC)n1` [Example 153, ((6R)-2-(2,6-dimethoxypyrimidin-4-yl)-6-methyl-1,2,5-oxadiazepan-5-yl)(2-(2H-1,2,3-triazol-2-yl)phenyl)methanone], the inhibition at 10 µM amounted to 94% on human OX1 receptor and 99% at human OX2 receptor.
For the molecule `Cc1cc(N2CCN(C(=O)c3ccccc3-n3nccn3)[C@H](C)CO2)nc(C(C)(C)C)n1` [Example 154, ((6R)-2-(2-tert-butyl-6-methylpyrimidin-4-yl)-6-methyl-1,2,5-oxadiazepan-5-yl)(2-(2H-1,2,3-triazol-2-yl)phenyl)methanone], the inhibition at 10 µM was determined as 97% at human OX1 receptor and 91% at human OX2 receptor.
Consider `Cc1cc(N2CCN(C(=O)c3ccccc3-n3nccn3)[C@H](C)CO2)nc(C2(C)CC2)n1` [Example 155, ((6R)-6-methyl-2-(6-methyl-2-(1-methylcyclopropyl)pyrimidin-4-yl-1,2,5-oxadiazepan-5-yl)(2-(2H-1,2,3-triazol-2-yl)phenyl)methanone hydrochloride], for which the inhibition at 10 µM on human OX1 receptor turned out to be 100%; at human OX2 receptor, 103%.
In the same order, the values of `Cc1ccc(C#N)c(N2CCN(C(=O)c3ccccc3-n3nccn3)[C@H](C)CO2)n1` [Example 156, 6-methyl-2-((6R)-6-methyl-5-(2-(2H-1,2,3-triazol-2-yl)benzoyl)-1,2,5-oxadiazepan-2-yl)nicotinonitrile] are 18% and 19%.
As for `COc1cccc(N2CCN(C(=O)c3ccccc3-n3nccn3)[C@H](C)CO2)n1` [Example 157, ((6R)-2-(6-methoxypyridin-2-yl)-6-methyl-1,2,5-oxadiazepan-5-yl)(2-(2H-1,2,3-triazol-2-yl)phenyl)methanone], the inhibition at 10 µM was 93% on human OX1 receptor and 91% at human OX2 receptor.
On to `C[C@@H]1CON(c2cccc(CO)n2)CCN1C(=O)c1ccccc1-n1nccn1` [Example 158, ((6R)-2-(6-(hydroxymethyl)pyridin-2-yl)-6-methyl-1,2,5-oxadiazepan-5-yl)(2-(2H-1,2,3-triazol-2-yl)phenyl)methanone], for which the inhibition at 10 µM at human OX1 receptor was determined as 18%; on human OX2 receptor, 99%.
On to `COc1ncnc(N2CCN(C(=O)c3ccccc3-n3nccn3)[C@H](C)CO2)n1` [Example 159, ((6R)-2-(4-methoxy-1,3,5-triazin-2-yl)-6-methyl-1,2,5-oxadiazepan-5-yl)(2-(2H-1,2,3-triazol-2-yl)phenyl)methanone], for which the values for the inhibition at 10 µM at human OX1 receptor and on human OX2 receptor were 16% and 89%, respectively.
Turning to `COc1cc(N2CCN(C(=O)c3ccccc3-n3nccn3)[C@H](C)CO2)nc(C)n1` [Example 160, ((6R)-2-(6-methoxy-2-methylpyrimidin-4-yl)-6-methyl-1,2,5-oxadiazepan-5-yl)(2-(2H-1,2,3-triazol-2-yl)phenyl)methanone], the results for the inhibition at 10 µM at human OX1 receptor and on human OX2 receptor were 82% and 101%, respectively.
On the same counts, the results for `Cc1cc(C)nc(N2CCN(C(=O)c3cc(F)ccc3-n3nccn3)[C@H](C)CO2)n1` [Example 161, ((6R)-2-(4,6-dimethylpyrimidin-2-yl)-6-methyl-1,2,5-oxadiazepan-5-yl)(5-fluoro-2-(2H-1,2,3-triazol-2-yl)phenyl)methanone hydrochloride] are 46% and 102%.
As to `Cc1cc(N2CCN(C(=O)c3cc(F)ccc3-n3nccn3)[C@H](C)CO2)nc(C)n1` [Example 162, ((6R)-2-(2,6-dimethylpyrimidin-4-yl)-6-methyl-1,2,5-oxadiazepan-5-yl)(5-fluoro-2-(2H-1,2,3-triazol-2-yl)phenyl)methanone], the inhibition at 10 µM on human OX1 receptor came to 42%; on human OX2 receptor, 100%.
Take `Cc1cc(C#N)nc(N2CCN(C(=O)c3cc(F)ccc3-n3nccn3)[C@H](C)CO2)n1` [Example 163, 2-((6R)-5-(5-fluoro-2-(2H-1,2,3-triazol-2-yl)benzoyl)-6-methyl-1,2,5-oxadiazepan-2-yl)-6-methylpyrimidine-4-carbonitrile]: the inhibition at 10 µM came out at 61% at human OX1 receptor and 102% on human OX2 receptor.
Turning to `Cc1csc(N2CCN(C(=O)c3cc(F)ccc3-n3nccn3)[C@H](C)CO2)n1` [Example 164, (5-fluoro-2-(2H-1,2,3-triazol-2-yl)phenyl)((6R)-6-methyl-2-(4-methyl-1,3-thiazol-2-yl)-1,2,5-oxadiazepan-5-yl)methanone], the inhibition at 10 µM at human OX1 receptor was found to be 8%; on human OX2 receptor, 43%.
Consider `C[C@@H]1CON(c2ncnc3ccn(C)c23)CCN1C(=O)c1cc(F)ccc1-n1nccn1` [Example 165, (5-fluoro-2-(2H-1,2,3-triazol-2-yl)phenyl)((6R)-6-methyl-2-(5-methyl-5H-pyrrolo[3,2-d]pyrimidin-4-yl)-1,2,5-oxadiazepan-5-yl)methanone], for which the inhibition at 10 µM at human OX1 receptor and at human OX2 receptor was 24% throughout.
As for `Cc1nc(N2CCN(C(=O)c3cc(F)ccc3-n3nccn3)[C@H](C)CO2)nc(C)c1F` [Example 166, ((6R)-2-(5-fluoro-4,6-dimethylpyrimidin-2-yl)-6-methyl-1,2,5-oxadiazepan-5yl)(5-fluoro-2-(2H-1,2,3-triazol-2-yl)phenyl)methanone], the inhibition at 10 µM at human OX1 receptor was found to be 81%; on human OX2 receptor it was 97%.
Consider `Cc1nc(N2CCN(C(=O)c3cc(F)ccc3-n3nccn3)[C@H](C)CO2)nc(C)c1Cl` [Example 167, ((6R)-2-(5-chloro-4,6-dimethylpyrimidin-2-yl)-6-methyl-1,2,5-oxadiazepan-5-yl)(5-fluoro-2-(2H-1,2,3-triazol-2-yl)phenyl)methanone], for which the inhibition at 10 µM came out at 100% at human OX1 receptor and 98% at human OX2 receptor.
Consider `CC[C@@H]1CON(c2cc(C)nc(C)n2)CCN1C(=O)c1ccccc1-n1nccn1` [Example 168, ((6R)-2-(2,6-dimethylpyrimidin-4-yl)-6-ethyl-1,2,5-oxadiazepan-5-yl)(2-(2H-1,2,3-triazol-2-yl)phenyl)methanone], for which the inhibition at 10 µM at human OX1 receptor is 95%; at human OX2 receptor, 99%.
Take `CC[C@@H]1CON(c2cc(C)nc(C)n2)CCN1C(=O)c1ccccc1-c1nccs1` [Example 169, ((6R)-2-(2,6-dimethylpyrimidin-4-yl)-6-ethyl-1,2,5-oxadiazepan-5-yl)(2-(1,3-thiazol-2-yl)phenyl)methanone]: the inhibition at 10 µM stood at 100% at human OX1 receptor and 99% on human OX2 receptor.
In the case of `Cc1cc(N2CCN(C(=O)c3ccccc3-n3nccn3)[C@@H](C)CO2)nc(C)n1` [Example 170, ((6S)-2-(2,6-dimethylpyrimidin-4-yl)-6-methyl-1,2,5-oxadiazepan-5-yl)(2-(2H-1,2,3-triazol-2-yl)phenyl)methanone], the inhibition at 10 µM on human OX1 receptor was 20%; on human OX2 receptor, 100%.
On to `Cc1cc(N2CCN(C(=O)c3ccccc3-c3nccs3)[C@@H](C)CO2)nc(C)n1` [Example 171, ((6S)-2-(2,6-dimethylpyrimidin-4-yl)-6-methyl-1,2,5-oxadiazepan-5-yl)(2-(1,3-thiazol-2-yl)phenyl)methanone], for which the inhibition at 10 µM on human OX1 receptor was 37%; on human OX2 receptor, 102%.
